Data published in Sander's compilation of Henry's law constants (doi:10.1016/0045-6535(88)90028-8).

Assay: Henry solubility constant Hcp at 298.15 K (mol/(m3 Pa))
Settings: reference: Dunnivant and Elzerman (1988)

Compound	Henry solubility constant Hcp
Clc1cccc(-c2cccc(Cl)c2Cl)c1Cl [2,2',3,3'-tetrachlorobiphenyl]	0.049
Clc1cc(Cl)c(-c2cc(Cl)c(Cl)cc2Cl)cc1Cl [2,2',4,4',5,5'-hexachlorobiphenyl]	0.075
Clc1cc(Cl)c(-c2c(Cl)cc(Cl)cc2Cl)c(Cl)c1 [2,2',4,4',6,6'-hexachlorobiphenyl]	0.013
Clc1ccc(Cl)c(-c2cc(Cl)c(Cl)cc2Cl)c1 [2,2',4,5,5'-pentachlorobiphenyl]	0.039
Clc1ccc(Cl)c(-c2cc(Cl)ccc2Cl)c1 [2,2',5,5'-tetrachlorobiphenyl]	0.029
Clc1ccc(Cl)c(-c2ccccc2Cl)c1 [2,2',5-trichlorobiphenyl]	0.026
Clc1cccc(Cl)c1-c1c(Cl)cccc1Cl [2,2',6,6'-tetrachlorobiphenyl]	0.018
Clc1ccccc1-c1ccccc1Cl [2,2'-dichlorobiphenyl]	0.029
Clc1cccc(-c2cc(Cl)ccc2Cl)c1 [2,3',5-trichlorobiphenyl]	0.03
Clc1cc(Cl)c(-c2ccccc2)c(Cl)c1 [2,4,6-trichlorobiphenyl]	0.015
Clc1ccc(-c2ccccc2)c(Cl)c1 [2,4-dichlorobiphenyl]	0.028
Clc1ccc(Cl)c(-c2ccccc2)c1 [2,5-dichlorobiphenyl]	0.025
Clc1ccc(-c2ccc(Cl)c(Cl)c2)cc1Cl [3,3',4,4'-tetrachlorobiphenyl]	0.1
Clc1cccc(-c2cccc(Cl)c2)c1 [3,3'-dichlorobiphenyl]	0.042
Clc1ccc(-c2ccccc2)cc1Cl [3,4-dichlorobiphenyl]	0.048
Clc1ccc(-c2ccc(Cl)cc2)cc1 [4,4'-dichlorobiphenyl]	0.05
